Ki data for 42 molecules are collected here from US9732087B2, “Diamino-pyridine, pyrimidine, and pyridazine modulators of the histamine H4 receptor” (JANSSEN PHARMACEUTICA NV, priority 2008, dated 2017).

Structures are written as SMILES.

In general, Ki refers to a dissociation constant, usually derived from enzyme kinetics or from competition with a known ligand.

Chain of human H4 receptor (Q9H3N8 whole entry): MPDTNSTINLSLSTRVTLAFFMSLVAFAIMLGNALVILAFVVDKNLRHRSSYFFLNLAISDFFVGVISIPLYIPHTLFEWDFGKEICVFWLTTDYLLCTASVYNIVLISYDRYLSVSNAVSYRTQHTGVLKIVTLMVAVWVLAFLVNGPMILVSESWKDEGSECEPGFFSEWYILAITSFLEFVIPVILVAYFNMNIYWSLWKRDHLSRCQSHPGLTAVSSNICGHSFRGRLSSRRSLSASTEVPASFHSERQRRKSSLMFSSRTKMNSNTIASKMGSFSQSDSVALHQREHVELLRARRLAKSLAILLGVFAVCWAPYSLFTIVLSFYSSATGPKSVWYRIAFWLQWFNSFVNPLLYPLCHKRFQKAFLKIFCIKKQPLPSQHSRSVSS

The target of the assay is human H4 receptor (Homo sapiens (Human), UniProt Q9H3N8). As to the kind of experiment: Binding assay on recombinant human histamine H4 receptor ([3H]histamine competition, SK-N-MC cell membranes). Conditions: membranes harvested with cell harvester; [3H]histamine 10 nM; average of results; read-out: Cell Harvester Ki. Summed up:
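Membranes from SK-N-MC cells stably or transiently transfected with human H4 receptor, prepared by homogenization and 30,000 g centrifugation in Tris/EDTA. Bound [3H]histamine separated by rapid filtration on PEI-treated GF/C filters, washed with ice-cold Tris/EDTA, counted by scintillation. '>' values denote highest concentration tested.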
Regarding `CN[C@H]1CCN(c2ccnc(N[C@H]3C[C@H]4CC[C@]3(C)C4(C)C)c2)C1` [Example 206, 4-[(3S)-3-(Methylamino)pyrrolidin-1-yl]-N-[(1R,2S,4R)-1,7,7-trimethylbicyclo[2.2.1]hept-2-yl]pyridin-2-amine], the Ki was 44.9 nM. Consider `CN1CCN(c2ccnc(NC3C4C[C@H]5C[C@@H](C4)C[C@@H]3C5)c2)CC1` (stereo partly drawn) [Example 207, Adamantan-2-yl-[4-(4-methyl-piperazin-1-yl)-pyridin-2-yl]-amine], for which the Ki was found to be 191 nM.

Take `CN[C@@H]1CCN(c2ccnc(NC3C4CC5CC(C4)CC3C5)c2)C1` (stereo partly drawn) [Example 208, Adamantan-2-yl-[4-(3R)-(3-methylamino-pyrrolidin-1-yl)-pyridin-2-yl]-amine]: the Ki was determined as 0.86 nM.

With `CN[C@@H]1CCN(c2ccnc(N[C@H](C)C3CCCCC3)c2)C1` [Example 209, N-[(1R)-1-Cyclohexylethyl]-4-[(3R)-3-(methylamino)pyrrolidin-1-yl]pyridin-2-amine], the inhibitory constant (Ki) was found to be 1460 nM. Then `CN[C@H]1CCN(c2ccnc(NC34CC5CC(CC(C5)C3)C4)c2)C1` [Example 210, Adamantan-1-yl-[4-(3S)-(3-methylamino-pyrrolidin-1-yl)-pyridin-2-yl]-amine], with 296 nM; and `CN[C@@H]1CCN(c2ccnc(NCC3CCCCC3)c2)C1` [Example 211, N-(Cyclohexylmethyl)-4-[(3R)-3-(methylamino)pyrrolidin-1-yl]pyridin-2-amine], with 1.68 nM. Turning to `CN1CCN(c2ccnc(NCC3CCCCC3)c2)CC1` [Example 212, N-(Cyclohexylmethyl)-4-(4-methylpiperazin-1-yl)pyridin-2-amine], the Ki worked out at 275 nM. Take `CN[C@H]1CCN(c2ccnc(N[C@H](C)C3CCCCC3)c2)C1` [Example 213, N-[(1R)-1-Cyclohexylethyl]-4-[(3S)-3-(methylamino)pyrrolidin-1-yl]pyridin-2-amine]: the inhibitory constant (Ki) is 157 nM. On to `C[C@@H](Nc1cc(N2CCN(C)CC2)ccn1)C1CCCCC1` [Example 214, N-[(1R)-1-Cyclohexylethyl]-4-(4-methylpiperazin-1-yl)pyridin-2-amine], for which the inhibition constant Ki came to 416 nM. For the molecule `CN[C@H]1CCN(c2ccnc(NC3C4CC5CC(C4)CC3C5)c2)C1` (stereo partly drawn) [Example 215, Adamantan-2-yl-[4-(3S)-(3-methylamino-pyrrolidin-1-yl)-pyridin-2-yl]-amine], the inhibitory constant (Ki) came out at 69.6 nM. Regarding `CN1CCN(c2ccnc(NCCCO)c2)CC1` [Example 216, 3-{[4-(4-Methylpiperazin-1-yl)pyridin-2-yl]amino}propan-1-ol], the Ki is 1430 nM. Turning to `CN[C@@H]1CCN(c2ccnc(NC34CC5CC(CC(C5)C3)C4)c2)C1` [Example 218, Adamantan-1-yl-[4-(3R)-(3-methylamino-pyrrolidin-1-yl)-pyridin-2-yl]-amine], the Ki is 2.62 nM. On to `CN1CCN(c2ccnc(NC34C[C@H]5C[C@@H](C3)C[C@@H](C4)C5)c2)CC1` [Example 219, Adamantan-1-yl-[4-(4-methyl-piperazin-1-yl)-pyridin-2-yl]-amine], for which the Ki was determined as 188 nM. Then `CN1CCN(c2ccnc(NC[C@H]3CC[C@H]4C[C@@H]3C4(C)C)c2)CC1` [Example 221, N-{[(1S,2S,5S)-6,6-Dimethylbicyclo[3.1.1]hept-2-yl]methyl}-4-(4-methylpiperazin-1-yl)pyridin-2-amine], with 853 nM. Regarding `CN[C@@H]1CCN(c2ccnc(NC3CCOCC3)c2)C1` [Example 222, 4-[(3R)-3-(Methylamino)pyrrolidin-1-yl]-N-(tetrahydro-2H-pyran-4-yl)pyridin-2-amine], the inhibition constant (Ki) was 67.3 nM. Turning to `CN1CCN(c2ccnc(NC3CCOCC3)c2)CC1` [Example 223, 4-(4-Methylpiperazin-1-yl)-N-(tetrahydro-2H-pyran-4-yl)pyridin-2-amine], the Ki amounted to 723 nM. Regarding `CN[C@H]1CCN(c2ccnc(NC[C@H]3CC[C@H]4C[C@@H]3C4(C)C)c2)C1` [Example 224, N-{[(1S,2S,5S)-6,6-Dimethylbicyclo[3.1.1]hept-2-yl]methyl}-4-[(3S)-3-(methylamino)pyrrolidin-1-yl]pyridin-2-amine], the Ki is 239 nM. In the case of `CN[C@H]1CCN(c2ccnc(NCC3CCCCC3)c2)C1` [Example 225, N-(Cyclohexylmethyl)-4-[(3S)-3-(methylamino)pyrrolidin-1-yl]pyridin-2-amine], the Ki was found to be 75.1 nM. `CN[C@@H]1CCN(c2ccnc(NCC3CCCC3)c2)C1` [Example 226, N-(Cyclopentylmethyl)-4-[(3R)-3-(methylamino)pyrrolidin-1-yl]pyridin-2-amine]: the inhibition constant (Ki) came to 3.81 nM.

In the case of `CN[C@H]1CCN(c2ccnc(NCC3CCCC3)c2)C1` [Example 227, N-(Cyclopentylmethyl)-4-[(3S)-3-(methylamino)pyrrolidin-1-yl]pyridin-2-amine], the Ki was 260 nM.

Regarding `CN[C@H]1CCN(c2ccnc(NCc3ccccn3)c2)C1` [Example 229, 4-[(3S)-3-(Methylamino)pyrrolidin-1-yl]-N-(pyridin-2-ylmethyl)pyridin-2-amine], the inhibitory constant (Ki) is more than 10000 nM. Then `CN[C@H]1CCN(c2ccnc(NC3C[C@H]4C[C@@H](C3C)C4(C)C)c2)C1` (stereo partly drawn) [Example 230, 4-[(3S)-3-(Methylamino)pyrrolidin-1-yl]-N-[(1S,5R)-2,6,6-trimethylbicyclo[3.1.1]hept-3-yl]pyridin-2-amine], with 276 nM; and `CC1C(Nc2cc(N3CCN(C)CC3)ccn2)C[C@H]2C[C@@H]1C2(C)C` (stereo partly drawn) [Example 232, 4-(4-Methylpiperazin-1-yl)-N-[(1S,5R)-2,6,6-trimethylbicyclo[3.1.1]hept-3-yl]pyridin-2-amine], with 716 nM. For `CN[C@H]1CCN(c2ccnc(NC(C)(C)C)c2)C1` [Example 233, N-tert-Butyl-4-[(3S)-3-(methylamino)pyrrolidin-1-yl]pyridin-2-amine], the inhibition constant (Ki) worked out at 215 nM. For `CN[C@H]1CCN(c2ccnc(NCCCO)c2)C1` [Example 234, 3-({4-[(3S)-3-(Methylamino)pyrrolidin-1-yl]pyridin-2-yl}amino)propan-1-ol], the Ki was determined as 7260 nM.

With `CN[C@H]1CCN(c2ccnc(NC3CC3)c2)C1` [Example 235, N-Cyclopropyl-4-[(3S)-3-(methylamino)pyrrolidin-1-yl]pyridin-2-amine], the Ki turned out to be 409 nM. On to `CN1CCN(c2ccnc(NCC3CCCC3)c2)CC1` [Example 236, N-(Cyclopentylmethyl)-4-(4-methylpiperazin-1-yl)pyridin-2-amine], for which the inhibition constant (Ki) was found to be 47.4 nM. As for `CN[C@H]1CCN(c2ccnc(NCc3ccccc3)c2)C1` [Example 237, N-Benzyl-4-[(3S)-3-(methylamino)pyrrolidin-1-yl]pyridin-2-amine], the Ki was 585 nM. As for `CN[C@H]1CCN(c2ccnc(NCCOC)c2)C1` [Example 238, N-(2-Methoxyethyl)-4-[(3S)-3-(methylamino)pyrrolidin-1-yl]pyridin-2-amine], the inhibition constant Ki was found to be 555 nM. With `COCCNc1cc(N2CCN(C)CC2)ccn1` [Example 239, N-(2-Methoxyethyl)-4-(4-methylpiperazin-1-yl)pyridin-2-amine], the inhibitory constant (Ki) was found to be 701 nM.

As for `CN[C@@H]1CCN(c2ccnc(NCC(C)(C)O)c2)C1` [Example 240, 2-Methyl-1-({4-[(3R)-3-(methylamino)pyrrolidin-1-yl]pyridin-2-yl}amino)propan-2-ol], the inhibition constant Ki was determined as 54.3 nM.

Turning to `CN1CCN(c2ccnc(NCC(C)(C)O)c2)CC1` [Example 241, 2-Methyl-1-{[4-(4-methylpiperazin-1-yl)pyridin-2-yl]amino}propan-2-ol], the Ki came to 837 nM.

As to `CN[C@H]1CCN(c2ccnc(NCC(C)(C)O)c2)C1` [Example 242, 2-Methyl-1-({4-[(3S)-3-(methylamino)pyrrolidin-1 yl]pyridin-2-yl}amino)propan-2-ol], the Ki was more than 10000 nM. As for `CCCCNc1cc(N2CC[C@H](NC)C2)ccn1` [Example 243], the Ki amounted to 167 nM.

On to `CN1CCN(c2ccnc(NCc3ccccn3)c2)CC1` [Example 244, 4-(4-Methylpiperazin-1-yl)-N-(pyridin-2-ylmethyl)pyridin-2-amine], for which the Ki was determined as 3880 nM. Then `CN[C@H]1CCN(c2ccnc(NCCc3ccccc3)c2)C1` [Example 245, 4-[(3S)-3-(Methylamino)pyrrolidin-1-yl]-N-(2-phenylethyl)pyridin-2-amine], with 228 nM; and `CN[C@H]1CCN(c2ccnc(NCc3ccc(F)cc3)c2)C1` [Example 246, N-(4-Fluorobenzyl)-4-[(3S)-3-(methylamino)pyrrolidin-1-yl]pyridin-2-amine], with 395 nM; and `CN[C@@H]1CCN(c2ccnc(N[C@H]3C[C@H]4CC[C@]3(C)C4(C)C)c2)C1` [Example 247, 4-[(3R)-3-(Methylamino)pyrrolidin-1-yl]-N-[(1R,2S,4R)-1,7,7-trimethylbicyclo[2.2.1]hept-2-yl]pyridin-2-amine], with 1.41 nM. For the molecule `CN1CCN(c2ccnc(NCc3ccc(F)cc3)c2)CC1` [Example 249, N-(4-Fluorobenzyl)-4-(4-methylpiperazin-1-yl)pyridin-2-amine], the inhibition constant (Ki) was determined as 257 nM. The same measure for `CN1CCN(c2ccnc(NCCc3ccccc3)c2)CC1` [Example 250, 4-(4-Methylpiperazin-1-yl)-N-(2-phenylethyl)pyridin-2-amine]: 659 nM.

As for `CN[C@H]1CCN(c2ccnc(NCC34CC5CC(CC(C5)C3)C4)c2)C1` [Example 251, Adamantan-1-ylmethyl-[4-(3S)-(3-methylamino-pyrrolidin-1-yl)-pyridin-2-yl]amine], the Ki worked out at 79.4 nM. Then `CN1CCN(c2ccnc(N[C@H]3C[C@H]4CC[C@]3(C)C4(C)C)c2)CC1` [Example 252, 4-(4-Methylpiperazin-1-yl)-N-[(1R,2S,4R)-1,7,7-trimethylbicyclo[2.2.1]hept-2-yl]pyridin-2-amine], with 190 nM.
